Reference: publication PMC7932537, “Quantitative profiling of protease specificity” (PLoS Computational Biology, 2021)

Assays:
MMP-2 [1] = test: Substrate phage display with NGS: relative probability (RP) of P3-P1' tetramer clusters; assay type: biochemical, human; conditions: MMP2;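 further: ratio of tetramer probability after protease selection to that in naive phage library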
MMP-2 [2] = biological target: T1, MMP-2 (Homo sapiens, UniProt P08253); test: K(obs) of individual phage substrates (set of 1369); assay type: biochemical; conditions: MMP2
T1 sequence (P08253 110-660): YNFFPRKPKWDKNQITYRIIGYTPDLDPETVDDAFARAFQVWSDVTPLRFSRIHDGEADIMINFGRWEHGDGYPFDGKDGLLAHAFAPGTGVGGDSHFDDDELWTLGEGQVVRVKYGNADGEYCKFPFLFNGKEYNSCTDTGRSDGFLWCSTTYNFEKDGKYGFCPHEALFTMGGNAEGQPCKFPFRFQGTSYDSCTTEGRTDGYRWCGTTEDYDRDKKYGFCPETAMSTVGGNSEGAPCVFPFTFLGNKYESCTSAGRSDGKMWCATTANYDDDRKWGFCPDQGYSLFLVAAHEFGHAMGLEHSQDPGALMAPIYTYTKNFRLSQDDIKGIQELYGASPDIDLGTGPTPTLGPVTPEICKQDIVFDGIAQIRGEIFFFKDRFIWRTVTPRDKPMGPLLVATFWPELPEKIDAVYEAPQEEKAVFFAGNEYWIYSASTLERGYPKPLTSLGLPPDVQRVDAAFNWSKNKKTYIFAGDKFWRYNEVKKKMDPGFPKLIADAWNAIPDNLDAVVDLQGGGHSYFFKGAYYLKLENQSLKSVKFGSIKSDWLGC

MMP-9 = MMP-9 (Homo sapiens, UniProt P14780); test: as above; assay type: biochemical; conditions: MMP9
Chain of MMP-9 (P14780 94-707): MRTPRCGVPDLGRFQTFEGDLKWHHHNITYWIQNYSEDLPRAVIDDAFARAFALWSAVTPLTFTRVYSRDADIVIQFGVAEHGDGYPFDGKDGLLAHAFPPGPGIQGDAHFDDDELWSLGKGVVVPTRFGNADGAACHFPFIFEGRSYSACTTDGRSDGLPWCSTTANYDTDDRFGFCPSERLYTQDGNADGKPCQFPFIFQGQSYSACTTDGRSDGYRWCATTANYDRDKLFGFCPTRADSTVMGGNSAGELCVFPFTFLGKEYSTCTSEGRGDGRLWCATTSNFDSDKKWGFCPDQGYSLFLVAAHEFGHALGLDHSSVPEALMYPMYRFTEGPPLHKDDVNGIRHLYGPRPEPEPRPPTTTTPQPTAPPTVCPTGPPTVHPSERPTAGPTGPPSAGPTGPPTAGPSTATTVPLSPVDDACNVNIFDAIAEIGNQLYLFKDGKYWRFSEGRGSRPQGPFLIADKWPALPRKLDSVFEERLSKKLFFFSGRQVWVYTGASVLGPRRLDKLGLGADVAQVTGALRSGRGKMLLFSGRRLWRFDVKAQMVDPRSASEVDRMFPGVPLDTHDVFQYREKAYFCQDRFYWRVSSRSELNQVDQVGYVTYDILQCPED

[3] = RP of the P3-P1' tetramer contained in the substrate
[4] = individual phage substrate of the set of 1369 peptides, cleavage position marked by '-'
[5] = individual phage substrate of the set of 1369 peptides, dash in the sequence marks the cleavage position
[6] = RP of the P3-P1' tetramer contained in the substrate (substrate phage display with NGS)
[7] = individual phage substrates, set of 1369 peptides, cleavage position marked by hyphen in sequence
[8] = individual phage substrates, set of 1369 peptides, hyphen in sequence marks cleavage position

Substance | Kobs (MMP-2 [2]; [4]) [M⁻¹ s⁻¹] | Kobs (MMP-9; [5]) [M⁻¹ s⁻¹] | Kobs (MMP-2 [2]; [7]) [M⁻¹ s⁻¹] | Kobs (MMP-9; [8]) [M⁻¹ s⁻¹] | relative probability (RP) (MMP-2 [1]; [3]) | relative probability (RP) (MMP-2 [1]; [6])
GRVAY-LSTAS | 8941.32 | 56.119 | – | – | 26.5348 | –
GRVEL-LYTAS | – | – | 0 | 0 | – | 0
GSGAH-LQLST | 171.876 | 292.668 | – | – | 8.464 | –
GSGAS-LQMLT | – | – | 3253.29 | 84.609 | – | 9.538
GSGFS-LRTWT | – | – | 0 | 0 | – | 0.09752
GSGRA-MYGTT | 1513.13 | 2476.66 | – | – | 2.5449 | –
GSGWA-LKKVT | – | – | 0 | 0 | – | 0.09159
GSGYH-LRHTT | 231.616 | 0 | – | – | 0.08149 | –
GSGYS-LIALT | – | – | 142.481 | 142.481 | – | 0.04707
GSPMH-LITAS | – | – | 6688.74 | 9740.44 | – | 30.095
GSTRN-LITAS | – | – | 1870.4 | 990.764 | – | 12.3403
GSVWA-LTASG | – | – | 1870.4 | 4922.1 | – | 12.7502
GSVWH-VRTAS | – | – | 231.616 | 0 | – | 0
GTLAA-MSTAS | – | – | 4205.91 | 0 | – | 30.6825
GTPYG-LVTAS | 12792.1 | 12792.1 | – | – | 32.9966 | –
GTPYP-LRTAS | – | – | 12792.1 | 12792.1 | – | 30.8058
GTVRS-LITAS | – | – | 8941.32 | 2476.66 | – | 12.3051
GVHFH-LITAS | 0 | 0 | – | – | 0.09413 | –
GVLRM-LSTAS | 0 | 951.362 | – | – | 9.0498 | –

Substance | Kobs (MMP-2 [2]; [4]) [M⁻¹ s⁻¹] | Kobs (MMP-9; [5]) [M⁻¹ s⁻¹] | Kobs (MMP-2 [2]; [7]) [M⁻¹ s⁻¹] | Kobs (MMP-9; [8]) [M⁻¹ s⁻¹] | relative probability (RP) (MMP-2 [1]; [3]) | relative probability (RP) (MMP-2 [1]; [6])
GVLYH-LQTAS | – | – | 171.876 | 292.668 | – | 4.529
GVVRG-LSTAS | 9740.44 | 4613.14 | – | – | 29.092 | –
GVYAH-LLTAS | 323.705 | 171.876 | – | – | 18.7061 | –
GVYGA-LRTAS | 12792.1 | 142.481 | – | – | 28.8499 | –
GVYRH-MRTAS | – | – | 0 | 0 | – | 0.3212
GWAYN-MRTAS | – | – | 292.668 | 2280.5 | – | 10.8408
GWPAG-LTTAS | 12792.1 | 12792.1 | – | – | 36.0156 | –
GWPNA-FLTAS | 5667.28 | 231.616 | – | – | 16.8865 | –
GWPRE-LKTAS | 12792.1 | 12792.1 | – | – | 31.9513 | –
GWVSY-LKTAS | – | – | 9740.44 | 0 | – | 20.2936
GYARL-LRTAS | 484.315 | 690.17 | – | – | 1.104 | –
GYFGN-LRTAS | – | – | 7015.91 | 0 | – | 26.0275
GYPRN-IGTAS | 8941.32 | 7386.83 | – | – | 31.9621 | –
HAHAS-LTASG | – | – | 12792.1 | 142.481 | – | 26.2573
HAPLN-FTASG | 12792.1 | 10866.7 | – | – | 28.3679 | –
HAPRG-STASG | 7015.91 | 7386.83 | – | – | 16.3331 | –
HDYFN-LTASG | – | – | 27.918 | 0 | – | 0
HGLWS-LTASG | – | – | 2097.28 | 1071.29 | – | 8.3838

Now from value to substance, other results behind:

Kobs (MMP-2 [2]; [4]) [M⁻¹ s⁻¹] | Kobs (MMP-9; [5]) [M⁻¹ s⁻¹] | Kobs (MMP-2 [2]; [7]) [M⁻¹ s⁻¹] | Kobs (MMP-9; [8]) [M⁻¹ s⁻¹] | Substance | relative probability (RP) (MMP-2 [1]; [3]) | relative probability (RP) (MMP-2 [1]; [6])
– | – | 585.336 | 2761.81 | GRVYD-LKTAS | – | 1.244
12792.1 | 5667.28 | – | – | GSAVG-LRTAS | 28.9998 | –
– | – | 874.197 | 451.441 | GSFRG-LRTAS | – | 7.475
– | – | 836.403 | 84.609 | GSGAA-LTMPT | – | 15.7207
– | – | 171.876 | 0 | GSGQH-LRKST | – | 1.164
– | – | 113.394 | 0 | GSGQH-LRVHT | – | 1.164
– | – | 386.839 | 27.918 | GSGRH-LIKVT | – | 3.598
551.253 | 113.394 | – | – | GSGRN-LRLQT | 8.812 | –
– | – | 12792.1 | 56.119 | GSHSN-LMTAS | – | 27.7336
12792.1 | 0 | – | – | GSLAH-LTASG | 32.813 | –
3741.87 | 874.197 | – | – | GSMNS-LRTAS | 18.7113 | –
12792.1 | 12792.1 | – | – | GSPAS-LRTAS | 36.4285 | –
8941.32 | 12792.1 | – | – | GSPYG-LLTAS | 32.9966 | –
0 | 0 | – | – | GSVHH-LITAS | 14.1228 | –
– | – | 3344.37 | 2409.72 | GSVMN-LTASG | – | 18.6016
– | – | 0 | 0 | GSVNY-LVTAS | – | 8.427
6396.07 | 3253.29 | – | – | GTALP-LRTAS | 22.1772 | –

Kobs (MMP-2 [2]; [4]) [M⁻¹ s⁻¹] | Kobs (MMP-9; [5]) [M⁻¹ s⁻¹] | Kobs (MMP-2 [2]; [7]) [M⁻¹ s⁻¹] | Kobs (MMP-9; [8]) [M⁻¹ s⁻¹] | Substance | relative probability (RP) (MMP-2 [1]; [3]) | relative probability (RP) (MMP-2 [1]; [6])
7015.91 | 171.876 | – | – | GTLMG-LYTAS | 28.5499 | –
12792.1 | 1465.65 | – | – | GTLRS-LITAS | 15.1373 | –
5667.28 | 12792.1 | – | – | GTPMQ-LYTAS | 27.6586 | –
– | – | 12792.1 | 12792.1 | GTPSA-LTTAS | – | 36.1873
5090.5 | 1610.61 | – | – | GVARP-LSTAS | 27.8706 | –
10866.7 | 9740.44 | – | – | GVIRF-LRTAS | 12.1004 | –
– | – | 654.784 | 0 | GVLQK-LVTAS | – | 13.1993
1196.62 | 1465.65 | – | – | GVVLN-LETAS | 18.9065 | –
1373.05 | 799.117 | – | – | GVYQG-LRTAS | 4.332 | –
– | – | 1071.29 | 836.403 | GWWMN-LTASG | – | 0
– | – | 5461.43 | 0 | GYIQS-LFTAS | – | 25.2682
– | – | 9740.44 | 8941.32 | GYPLH-LQTAS | – | 34.1843
12792.1 | 12792.1 | – | – | GYPRA-FSTAS | 31.8957 | –
1327.88 | 4922.1 | – | – | GYPWA-WRTAS | 10.3227 | –
2218.08 | 7015.91 | – | – | GYPWS-LSTAS | 28.5684 | –
– | – | 654.784 | 0 | HIWQN-LTASG | – | 6.292
